The subject of the experiment is primary HSCs. The experiment can be described thus: Cell viability assay (CellTiter Glo), primary HSCs. The format is cell-based, mouse. Particulars: dose-dependent manner. The protocol:
Primary HSCs or LX-2 cells were seeded onto 96-well tissue culture plates.
(Cellular ATP, detected with luciferase, serves as a proxy for viable cell number.)

For `Cc1sc2c(c1C)C(c1ccc(Cl)cc1)=N[C@@H](CC(=O)OC(C)(C)C)c1nnc(C)n1-2` [JQ1, (S)-tert-butyl 2-(4-(4-chlorophenyl)-2,3,9-trimethyl-6H-thieno[3,2-f][1,2,4]triazolo[4,3-a][1,4]diazepin-6-yl)acetate], the “anti-proliferative activity against activated HSCs” value is recorded as “significant anti-proliferative activity”.

(Values after US20180325914A1, “INCREASING STORAGE OF VITAMIN A, VITAMIN D AND/OR LIPIDS” (Salk Institute for Biological Studies, priority 2014, published 2018).)
